pIC50: −log10 of the molar value. Calls of active or inactive are those of the source. The rule behind the calls is not given here.
Columns and labels:
[1] = test system: HT-1080; assay: Induction of ferroptosis in human HT-1080 cells assessed as increase in SLC7A11 mRNA level incubated for 18 hrs by qPCR analysis; format: functional, cell-based; conditions: dose 0.5-5 µM
[2] = test system: 786-0; assay: Lethality in human 786-0 cells assessed as decrease in cell viability at 10 uM incubated for 48 hrs in presence of Fer-1 by MTT assay; format: functional, cell-based
[3] = test system: HepG2; assay: Induction of ferroptosis in human HepG2 cells xenografted in BALB/c nude mouse assessed as increase in MDA level administered intraperitoneally every other day for 21 days; format: functional; conditions: dose 15-30 mg/kg, route ip, time 21.0 day
[4] = Toxicity in human L02 cells upto 20 uM incubated for 48 hrs by MTT assay; format: cell-based; conditions: l02, 48 h
[5] = test system: HT-1080; assay: Induction of ferroptosis in human HT-1080 cells assessed as increase in CHAC1 mRNA level incubated for 6 hrs by qPCR analysis; format: functional, cell-based; conditions: dose 0.5-5 µM
[6] = Toxicity in BALB/c nude mouse xenografted with human HepG2 cells assessed as effect on serum ALT level at 15 to 30 mg/kg, ip administered every other day for 21 days; format: organism-based; conditions: in vivo, 504 h, dose 15-30 mg/kg, time 21 day
[7] = test system: HeLa; assay: Lethality in human HeLa cells assessed as decrease in cell viability at 10 uM incubated for 48 hrs in presence of Fer-1 by MTT assay; format: functional, cell-based
[8] = Toxicity in BALB/c nude mouse xenografted with human HepG2 cells assessed as histological change in spleen at 15 to 30 mg/kg, ip administered every other day for 21 days by H and E staining based analysis; format: organism-based; conditions: in vivo, 504 h, dose 15-30 mg/kg, time 21 day
[9] = Toxicity in BALB/c nude mouse xenografted with human HepG2 cells assessed as effect on serum UREA level at 15 to 30 mg/kg, ip administered every other day for 21 days; format: organism-based; conditions: in vivo, 504 h, dose 15-30 mg/kg, time 21 day
[10] = test system: HeLa; assay: Lethality in human HeLa cells assessed as decrease in cell viability at 10 uM incubated for 48 hrs by MTT assay; format: functional, cell-based
[11] = test system: 786-0; assay: Lethality in human 786-0 cells assessed as inhibition of cell viability incubated for 24 hrs by MTT assay; format: functional, cell-based; conditions: 786-0, 24 h
[12] = test system: HT-1080; assay: Lethality in human HT-1080 cells assessed as inhibition of cell viability incubated for 24 hrs by MTT assay; format: functional, cell-based; conditions: HT-1080, 24 h
[13] = Toxicity in BALB/c nude mouse xenografted with human HepG2 cells assessed as histological change in lung at 15 to 30 mg/kg, ip administered every other day for 21 days by H and E staining based analysis; format: organism-based; conditions: in vivo, 504 h, dose 15-30 mg/kg, time 21 day

With `CN(C)S(=O)(=O)c1ccc(N2CCC(Cn3c(C(F)(F)F)nc4ccccc43)CC2)cc1` the Activity [1] was “Dose-Dependent Effect”, the Activity [2] was “inactive” and the Activity [3] was “Dose-Dependent Effect”. For the same compound, the Activity [4] was “Non-Toxic”, the Activity [5] was “Dose-Dependent Effect” and the Activity [6] was “Non-Toxic”. For the same compound, the Activity [7] was “inactive”, the Activity [8] was “Non-Toxic” and the Activity [9] was “Non-Toxic”. For the same compound, the Activity [10] was “Active”, the pIC50 [11] was 6.15 and the pIC50 [12] was 5.90. The Activity [13] was “Non-Toxic”.
